How the values were obtained:
[1] = tested on: effector memory T cells (TEM); assay: Kv1.3 expression, cytokine production and proliferation of TEM in activated PBMCs from IPEX subjects, with or without ShK-186 (flow cytometry, RT-QPCR); type: cell-based, human
Method: This example is performed to evaluate the expression of Kv1.3 channels by TEM found in IPEX subjects compared to controls, and to characterize the responsiveness of IPEX subject samples to treatment with therapeutic peptides such as the ShK-based peptide, ShK-186, formulated into a pharmaceutical composition. To evaluate Kv1.3 expression, peripheral blood mononuclear cells from IPEX and healthy controls are isolated. In the first phase of the example, the cells are activated in vitro with anti-CD3 antibodies or mitogens and then subjected to immunostaining and multicolor flow cytometry.
In the second phase, matching cell aliquots are analyzed by RT-QPCR for quantitation of Kv1.3 mRNA. In the third phase, matching cell aliquots are used to study the ability of ShK-186 to block the proinflammatory and proliferative potential of TEM from IPEX subjects versus controls. Cytokines (IFN-γ and IL-2, -4, -10, -17, and -21) and perforin are detected by intracellular cytokine staining and flow cytometry in resting or activated cells in the presence or absence of ShK-186. In this example, ten IPEX and ten normal controls are studied.
Peripheral blood mononuclear cells (PBMCs) are evaluated by multiparameter flow cytometry for cell surface expression of CD4 and CD25 and intracellular FOXP3. FACS sorting of all stimulated and stained samples will also be performed.

[2] = tested on: IPEX and secondary conditions related to IPEX; assay: Administration of effective amounts to subjects with IPEX (additional studies); type: in vivo; details: diabetes, thyroid dysfunction, enteropathy, eczema and others

(L-PhosphoTyr)-AEEAc-RSCIDTIPKSRCTAFQCKHSMKYRLSFCRKTCGTC-amide [ShK-186]
proliferation of TEM ([1]; PBMCs from IPEX subjects vs controls): reduces | expression of Kv1.3 channels by TEM ([1]; PBMCs from IPEX subjects vs healthy controls, activated with anti-CD3 antibodies or mitogens): reduces | IFN-γ and IL-2, -4, -10, -17, and/or -21 production by TEM ([1]; intracellular cytokine staining and flow cytometry, resting or activated cells): reduces | clinically relevant improvements in IPEX and secondary conditions related to IPEX [2]: produces clinically relevant improvements
